The assay relates to Candida albicans. Kind of assay: In vitro antifungal activity test (MIC), Candida albicans. The note with it: Candida albicans; concentration at which growth is inhibited by 80% vs negative control; 35° C., 24 hours, RPMI 1640, alama blue. In kind it is cell-based. As for the experimental part: The antifungal activities of the compounds of the present invention were evaluated using Candida albicans as yeast fungus, and Aspergillus fumigatus as a filamentous fungus. The above fungi used were all purchased from American Type Culture Collection (ATCC). The strains used in the experiment were inoculated into a Sabouraud dextrose agar medium, and then cultured at 35° C. for a sufficient period of time, e.g., 24 hours for Candida albicans, and about 7 days for Aspergillus fumigatus. As for Candida albicans, about 5 to 7 single colonies were taken from the cultured medium, sufficiently suspended in 1 ml of 0.85% sterile saline solution, and adjusted to have an optical density of 0.095 to 0.107 at 530 nm. A preparation of a strain diluent was diluted in Roswell park memorial institute (RPMI) 1640 medium at a 1:10 ratio, and the resultant was diluted again at a 1:100 ratio to obtain an inoculation preparation for Candida albicans with a concentration of 1.0×10^3 to 5.0×10^3 CFU/mL. As for Aspergillus fumigatus, the cultured Sabouraud dextrose agar was added with 1 mL of 0.2% Tween 20 diluted with 0.85% sterile saline solution, and then the plate was shaken to detach conidium from the plate. The solution collected from the plate surface was transferred into a sterile tube, and placed at room temperature for 5 minutes to deposit heavy substances. The resulting supernatant was transferred into the sterile tube, sufficiently suspended for about 15 seconds, and prepared a strain diluent with a concentration of 0.4×10^6 to 5.0×10^6 CFU/mL using a hemocytometer. The thus prepared strain diluent was diluted in RPMI 1640 medium at a 1:100 ratio to obtain an inoculation preparation for Aspergillus fumigatus. Candida albicans was cultured at 35° C. for 24 hours and Aspergillus fumigatus was cultured at 35° C. for 48 hours, and the concentrations, at which growth is inhibited by 80% or 50% compared to a negative control group, were determined using alama blue color developing reagent. All experiments were repeated twice for each concentration, and the results of antifungal activities (MIC80 MIC50 μg/mL) are shown in Tables 1 to 2.

Converted amounts (≈) assume the structure as drawn.

As for `Cn1cc(C(=O)NNc2ccc(F)cc2)ccc1=O` [Example 3, N′-(4-fluorophenyl)-1-methyl-6-oxo-1,6-dihydropyridine-3-carbohydrazide], the MIC80 (in general, the lowest concentration that inhibits either 80% of growth or 80% of the strains tested, depending on the study) came to 0.1 µg/mL (≈ 0.383 µM).
For `Cn1cc(C(=O)NNc2cccc(Cl)c2)ccc1=O` [Example 4, N′-(3-chlorophenyl)-1-methyl-6-oxo-1,6-dihydropyridine-3-carbohydrazide] the value was 0.11 µg/mL (≈ 0.396 µM); for `Cn1cc(C(=O)NNc2ccc(Cl)cc2)ccc1=O` [Example 5, N′-(4-chlorophenyl)-1-methyl-6-oxo-1,6-dihydropyridine-3-carbohydrazide], 0.05 µg/mL (≈ 0.18 µM); for `Cn1cc(C(=O)NNc2cccc(C#N)c2)ccc1=O` [Example 6, N′-(3-cyanophenyl)-1-methyl-6-oxo-1,6-dihydropyridine-3-carbohydrazide], 0.1 µg/mL (≈ 0.373 µM).
For the compound `Cn1cc(C(=O)NNc2ccc(C#N)cc2)ccc1=O` [Example 7, N′-(4-cyanophenyl)-1-methyl-6-oxo-1,6-dihydropyridine-3-carbohydrazide], the MIC80 came to 0.84 µg/mL (≈ 3.13 µM). Against the preceding compound, the MIC80 is about 8.4-fold higher.
The figure for `Cn1cc(C(=O)NNc2cccc(C(F)(F)F)c2)ccc1=O` [Example 8, 1-methyl-6-oxo-N′-(3-(trifluoromethyl)phenyl)-1,6-dihydropyridine-3-carbohydrazide] is 0.24 µg/mL (≈ 0.771 µM).
Take `Cn1cc(C(=O)NNc2ccc(C(F)(F)F)cc2)ccc1=O` [Example 9, 1-methyl-6-oxo-N′-(4-(trifluoromethyl)phenyl)-1,6-dihydropyridine-3-carbohydrazide]: the MIC80 was found to be 1.95 µg/mL (≈ 6.26 µM).
The figure for `Cn1cc(C(=O)NNc2ccc(F)c(F)c2)ccc1=O` [Example 12, N′-(3,4-difluorophenyl)-1-methyl-6-oxo-1,6-dihydropyridine-3-carbohydrazide] is 0.22 µg/mL (≈ 0.788 µM).
The figure for `Cn1cc(C(=O)NNc2ccc(Cl)c(Cl)c2)ccc1=O` [Example 14, N′-(3,4-dichlorophenyl)-1-methyl-6-oxo-1,6-dihydropyridine-3-carbohydrazide] is 0.06 µg/mL (≈ 0.192 µM); for `Cn1cc(C(=O)NNc2ccc(F)c(Cl)c2)ccc1=O` [Example 17, N′-(3-chloro-4-fluorophenyl)-1-methyl-6-oxo-1,6-dihydropyridine-3-carbohydrazide] it is 0.12 µg/mL (≈ 0.406 µM).
`Cn1cc(C(=O)NNc2ccc(F)nc2F)ccc1=O` [Example 19, N′-(2,6-difluoropyridine-3-yl)-1-methyl-6-oxo-1,6-dihydropyridine-3-carbohydrazide] gave an MIC80 of 0.88 µg/mL (≈ 3.14 µM).
For `Cc1nc(F)ccc1NNC(=O)c1ccc(=O)n(C)c1` [Example 20, N′-(6-fluoro-2-methylpyridine-3-yl)-1-methyl-6-oxo-1,6-dihydropyridine-3-carbohydrazide], the MIC80 is 0.22 µg/mL (≈ 0.796 µM).
For `Cn1cc(C(=O)NNc2cccc(F)c2)c(Cl)cc1=O` [Example 22, 4-chloro-N′-(3-fluorophenyl)-1-methyl-6-oxo-1,6-dihydropyridine-3-carbohydrazide] the value was 0.23 µg/mL (≈ 0.778 µM); for `Cn1cc(C(=O)NNc2ccc(F)cc2)c(Cl)cc1=O` [Example 23, 4-chloro-N′-(4-fluorophenyl)-1-methyl-6-oxo-1,6-dihydropyridine-3-carbohydrazide], 0.46 µg/mL (≈ 1.56 µM); for `Cn1cc(C(=O)NNc2ccc(F)cc2)cc(Cl)c1=O` [Example 25, 5-chloro-N′-(4-fluorophenyl)-1-methyl-6-oxo-1,6-dihydropyridine-3-carbohydrazide], 0.23 µg/mL (≈ 0.778 µM).
The figure for `Cn1cc(C(=O)NNc2ccc(Cl)cc2)cc(Cl)c1=O` [Example 27, 5-chloro-N′-(4-chlorophenyl)-1-methyl-6-oxo-1,6-dihydropyridine-3-carbohydrazide] is 0.49 µg/mL (≈ 1.57 µM); for `Cn1cc(C(=O)NNc2cccc(C#N)c2)cc(Cl)c1=O` [Example 28, 5-chloro-N′-(3-cyanophenyl)-1-methyl-6-oxo-1,6-dihydropyridine-3-carbohydrazide] it is 0.12 µg/mL (≈ 0.396 µM); for `Cn1cc(C(=O)NNc2ccc(C#N)cc2)cc(Cl)c1=O` [Example 29, 5-chloro-N′-(4-cyanophenyl)-1-methyl-6-oxo-1,6-dihydropyridine-3-carbohydrazide] it is 0.47 µg/mL (≈ 1.55 µM).
For the compound `Cn1cc(C(=O)NNc2ccc(F)cc2F)cc(Cl)c1=O` [Example 30, 5-chloro-N′-(2,4-difluorophenyl)-1-methyl-6-oxo-1,6-dihydropyridine-3-carbohydrazide], the MIC80 was found to be 0.31 µg/mL (≈ 0.988 µM). This MIC80 lies about 1.5-fold lower than the previous one.
As to `Cn1cc(C(=O)NNc2ccc(F)c(F)c2)cc(Cl)c1=O` [Example 31, 5-chloro-N′-(3,4-difluorophenyl)-1-methyl-6-oxo-1,6-dihydropyridine-3-carbohydrazide], the MIC80 was 0.06 µg/mL (≈ 0.191 µM). Compared with the last compound, the MIC80 is about 5.2-fold lower.
The figure for `Cn1cc(C(=O)NNc2cc(F)cc(F)c2)cc(Cl)c1=O` [Example 32, 5-chloro-N′-(3,5-difluorophenyl)-1-methyl-6-oxo-1,6-dihydropyridine-3-carbohydrazide] is 0.03 µg/mL (≈ 0.0956 µM); for `Cn1cc(C(=O)NNc2cccc(F)c2)c(Nc2ccc(C(F)(F)F)cc2)cc1=O` [Example 35, N′-(3-fluorophenyl)-1-methyl-6-oxo-4-((4-(trifluoromethyl)phenyl)amino)-1,6-dihydropyridine-3-carbohydrazide] it is 0.16 µg/mL (≈ 0.381 µM).
As to `Cn1cc(C(=O)NNc2ccc(F)cc2)c(Nc2ccc(C(F)(F)F)cc2)cc1=O` [Example 36, N′-(4-fluorophenyl)-1-methyl-6-oxo-4-((4-(trifluoromethyl)phenyl)amino)-1,6-dihydropyridine-3-carbohydrazide], the MIC80 turned out to be 1.31 µg/mL (≈ 3.12 µM). This MIC80 is about 8.2-fold higher than that of the compound before.
The figure for `Cn1cc(C(=O)NNc2cccc(F)c2)cc(-c2ccccn2)c1=O` [Example 41, N′-(3-fluorophenyl)-1-methyl-6-oxo-5-(pyridine-2-yl)-1,6-dihydropyridine-3-carbohydrazide] is 0.07 µg/mL (≈ 0.207 µM); for `O=C(NNc1cccc(F)c1)c1ccc(=O)n(-c2ccccc2F)c1` [Example 42, 1-(2-fluorophenyl)-N′-(3-fluorophenyl)-6-oxo-1,6-dihydropyridine-3-carbohydrazide] it is 0.07 µg/mL (≈ 0.205 µM).
As to `O=C(NNc1cccc(F)c1)c1ccc(=O)n(-c2cccc(F)c2)c1` [Example 43, N′,1-Bis(3-fluorophenyl)-6-oxo-1,6-dihydropyridine-3-carbohydrazide], the MIC80 is 0.13 µg/mL (≈ 0.381 µM). This MIC80 lies about 1.9-fold higher than the previous one.
The figure for `O=C(NNc1cccc(F)c1)c1ccc(=O)n(-c2ccc(F)cc2)c1` [Example 44, N′-(3-fluorophenyl)-1-(4-fluorophenyl)-6-oxo-1,6-dihydropyridine-3-carbohydrazide] is 0.13 µg/mL (≈ 0.381 µM); for `O=C(NNc1ccc(F)cc1)c1ccc(=O)n(-c2ccc(C(F)(F)F)cc2)c1` [Example 45, N′-(4-fluorophenyl)-6-oxo-1-(4-(trifluoromethyl)phenyl)-1,6-dihydropyridine-3-carbohydrazide] it is 0.61 µg/mL (≈ 1.56 µM).
The compound `O=C(NNc1ccc(F)cc1)c1ccc(=O)n(-c2cccc(C(F)(F)F)c2)c1` [Example 46, N′-(4-fluorophenyl)-6-oxo-1-(3-(trifluoromethyl)phenyl)-1,6-dihydropyridine-3-carbohydrazide] returned an MIC80 of 0.31 µg/mL (≈ 0.792 µM).
The figure for `O=C(NNc1ccc(F)cc1)c1ccc(=O)n(-c2cccc(Cl)c2)c1` [Example 47, 1-(3-chlorophenyl)-N′-(4-fluorophenyl)-6-oxo-1,6-dihydropyridine-3-carbohydrazide] is 0.56 µg/mL (≈ 1.57 µM).
For the compound `O=C(NNc1cccc(F)c1)c1ccc(=O)n(Cc2ccc(C(F)(F)F)nc2)c1` [Example 50, N′-(3-fluorophenyl)-6-oxo-1-((6-(trifluoromethyl)pyridine-3-yl)methyl)-1,6-dihydropyridine-3-carbohydrazide], the MIC80 was 0.08 µg/mL (≈ 0.197 µM).
For `O=C(NNc1ccc(F)cc1)c1ccc(=O)n(Cc2ccc(C(F)(F)F)nc2)c1` [Example 51, N′-(4-fluorophenyl)-6-oxo-1-((6-(trifluoromethyl)pyridine-3-yl)methyl)-1,6-dihydropyridine-3-carbohydrazide] the value was 0.16 µg/mL (≈ 0.394 µM); for `O=C(NNc1ccc(F)c(F)c1)c1ccc(=O)n(Cc2ccc(C(F)(F)F)nc2)c1` [Example 52, N′-(3,4-difluorophenyl)-6-oxo-1-((6-(trifluoromethyl)pyridine-3-yl)methyl)-1,6-dihydropyridine-3-carbohydrazide], 0.08 µg/mL (≈ 0.189 µM); for `O=C(NNc1cccc(F)c1)c1ccc(=O)n(CCN2CCN(c3ccc(C(F)(F)F)cc3)CC2)c1` [Example 55, N′-(3-fluorophenyl)-6-oxo-1-(2-(4-(4-(trifluoromethyl)phenyl)piperazin-1-yl)ethyl)-1,6-dihydropyridine-3-carbohydrazide], 0.2 µg/mL (≈ 0.397 µM).
The figure for `O=C(NNc1ccc(F)cc1)c1ccc(=O)n(CCN2CCN(c3ccc(C(F)(F)F)cc3)CC2)c1` [Example 56, N′-(4-fluorophenyl)-6-oxo-1-(2-(4-(4-(trifluoromethyl)phenyl)piperazin-1-yl)ethyl)-1,6-dihydropyridine-3-carbohydrazide] is 0.79 µg/mL (≈ 1.57 µM).

These data come from patent US9617216B2, “Antifungal oxodihydropyridinecarbohydrazide derivative” (Daewoong Pharmaceutical Co., Ltd., priority 2013, dated 2017).
